The values that follow come from BindingDB's records for doi:10.1111/cbdd.12356 (Peking University, 2014).

Structures are written as SMILES.

The assay deals with T1, Polyunsaturated fatty acid 5-lipoxygenase (Homo sapiens, UniProt P09917).
T1 sequence (P09917 whole entry): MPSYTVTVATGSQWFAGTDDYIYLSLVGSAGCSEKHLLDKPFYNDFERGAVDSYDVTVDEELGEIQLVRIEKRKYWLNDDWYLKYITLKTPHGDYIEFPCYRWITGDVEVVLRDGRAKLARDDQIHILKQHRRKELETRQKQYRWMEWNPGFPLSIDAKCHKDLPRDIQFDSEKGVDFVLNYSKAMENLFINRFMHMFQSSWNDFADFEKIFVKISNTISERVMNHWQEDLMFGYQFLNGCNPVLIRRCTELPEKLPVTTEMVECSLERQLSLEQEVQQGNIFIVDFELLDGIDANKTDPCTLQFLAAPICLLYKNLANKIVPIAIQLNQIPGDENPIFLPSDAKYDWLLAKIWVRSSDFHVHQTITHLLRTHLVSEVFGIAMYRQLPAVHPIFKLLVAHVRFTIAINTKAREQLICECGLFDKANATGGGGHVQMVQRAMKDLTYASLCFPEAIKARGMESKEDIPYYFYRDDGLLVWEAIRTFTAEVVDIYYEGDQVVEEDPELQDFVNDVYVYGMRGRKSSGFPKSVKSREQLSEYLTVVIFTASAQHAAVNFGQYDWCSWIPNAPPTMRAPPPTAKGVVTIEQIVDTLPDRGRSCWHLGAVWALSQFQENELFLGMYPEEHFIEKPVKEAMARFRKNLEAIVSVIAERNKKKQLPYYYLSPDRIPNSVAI
As to the kind of experiment: Cell-Free Assay. How it is done: The enzyme activity of 5-LOX was determined fluorescence spectrophotometrically by oxidation of the substrate H2DCFDA to the highly fluorescent 2',7'-dichlorofluorescein product during 5-LOX s catalytic reaction . The reactions were initiated by the addition of AA as substrate and then monitored by excitation at 500 nm and emission at 520 nm utilizing a multiwall fluorometer. Fluorescence signals were recorded for 5 min with a kinetics mode program. Inhibition activities were measured as described previously.

In general, IC50 refers to the concentration needed to halve the response being measured.

In turn, `O=C(c1[nH]nc2c1CSc1sc(Br)cc1-2)N1CCN(Cc2ccccc2)CC1` [5-(4-benzylpiperazine-1-carbonyl)-11-bromo-8,10-dithia-3,4-diazatricyclo[7.3.0.0 ,⁶]dodeca-1(9),2,5,11-tetraene (7i)] returned an IC50 of 21 µM. With `O=C(c1[nH]nc2c1CSc1sc(Br)cc1-2)N1CCN(c2ccccc2F)CC1` [11-bromo-5-[4-(2-fluorophenyl)piperazine-1-carbonyl]-8,10-dithia-3,4-diazatricyclo[7.3.0.0,6]dodeca-1(9),2,5,11-tetraene (7c)], half-maximal inhibition (IC50) required 5.7 µM. With `O=C(c1[nH]nc2c1CSc1sc(Br)cc1-2)N1CCN(c2ccc(OC(F)(F)F)cc2)CC1` [11-bromo-5-{4-[4-(trifluoromethoxy)phenyl]piperazine-1-carbonyl}-8,10-dithia-3,4-diazatricyclo[7.3.0.0 ,⁶]dodeca-1(9),2,5,11-tetraene (7e)] the figure was 86 µM.
